The text below walks through data of patent US7795179B2, “Substituted azole compounds and its preparation and use thereof” (Shenyang Research Institute of Chemical Industry, priority 2004, dated 2010).

Type in all cases: in vivo
The test system of one experiment is cucumber grey mold. Kind of experiment: Fungicidal activity on potted plants, cucumber grey mold. The conditions noted are these: 500 ppm, spray on potted plant, inoculation after 24 hours.
Another experiment concerns wheat powdery mildew. The experiment is described as follows: Fungicidal activity on potted plants, wheat powdery mildew. The following applies: spray on potted plant, inoculation after 24 hours.
A further experiment concerns wheat head blight. The following applies: 100 ppm.
A further experiment relates to grape downy mildew. Kind of experiment: Fungicidal activity on potted plants, grape downy mildew. The following applies: 100 ppm.
A further experiment concerns tomato early blight. The experiment is described as follows: Fungicidal activity on potted plants, tomato early blight. The conditions noted are these: 100 ppm.
The subject of the next experiment is apple ring rot. The experiment is described as follows: Fungicidal activity on potted plants, apple ring rot. The following applies: 100 ppm. The protocol: Determination of fungicidal activities against plant diseases of selected compounds were carried out by following procedure:
Technical samples were dissolved in DMF and diluted to required concentration wtih water containing 0.1% tween 80. Test solution was sprayed onto potted plant. Pathogen inoculation was carried out after 24 hours then plants were hold in growth chambers containing constant temperature and moisture for effect. When untreated plant was under desirable disease severity (after 1 week approximately), assessment were carried out by visual observation.

In experiment [1] the test system is apple alternaria leaf spot. Kind of experiment: Fungicidal activity on potted plants, apple alternaria leaf spot. The following applies: 100 ppm.
The next experiment deals with grape white rot. Kind of experiment: Fungicidal activity on potted plants, grape white rot. The following applies: 100 ppm.
Another experiment concerns rape sclerotiniose. The experiment is described as follows: Fungicidal activity on potted plants, rape sclerotiniose. The conditions noted are these: 100 ppm.
For experiment [2], the system named is corn southern leaf blight. The experiment is described as follows: Fungicidal activity on potted plants, corn southern leaf blight. The following applies: 100 ppm.
In a further experiment the test system is tomato late blight. The conditions noted are these: 100 ppm.
In another experiment the test system is cucumber downy mildew. The experiment is described as follows: Fungicidal activity on potted plants, cucumber downy mildew. The conditions noted are these: spray on potted plant, inoculation after 24 hours.
Another experiment deals with culex mosquito. Kind of experiment: Insecticidal activity, dipping culture method, culex mosquito. The following applies: 150 ppm, mortality 2 to 3 days after treatment. How it is done:
(§1) Determination of insecticidal and acaricidal activities against plant diseases of selected compounds were carried out by following procedure:
(§2) Technical samples were dissolved in acetone and diluted to required concentration with water containing 0.1% of tween 80. Armyworm, diamondback moth and green peach aphid were treated with Potter spraying tower, and culex mosquito was treated with dipping culture method. Mortality investigation of test insects was carried out 2 to 3 days after treatment.

The test system of a further experiment is armyworm. The experiment is described as follows: Insecticidal activity, Potter spraying tower, armyworm. The following applies: 150 ppm, mortality 2 to 3 days after treatment. The protocol: as §1, §2
Another experiment relates to green peach aphid. Kind of experiment: Insecticidal activity, Potter spraying tower, green peach aphid. The conditions noted are these: 150 ppm, mortality 2 to 3 days after treatment. The protocol:
as §1, §2

The test system of the next experiment is diamondback moth. The experiment is described as follows: Insecticidal activity, Potter spraying tower, diamondback moth. The following applies: 150 ppm, mortality 2 to 3 days after treatment. The protocol:
as §1, §2

As to `CO/C=C(/C(=O)OC)c1ccccc1COc1cc(-c2ccc(Cl)nc2)no1` [Compound 151], the “control against cucumber grey mold” value in the experiment on cucumber grey mold was 100%. Further, the “control against wheat powdery mildew” value with wheat powdery mildew (500 ppm) worked out at 100%.

On to `CO/C=C(/C(=O)OC)c1ccccc1COc1cc(-c2ccc(Cl)cc2)nn1C` [Compound 2], for which, in the experiment on wheat head blight, the “control against wheat head blight” value is recorded as “more than 80%”. Moreover, the “control against grape downy mildew” value with grape downy mildew was “more than 80%”. Moreover, the “control against tomato early blight” value in the experiment with tomato early blight is “more than 80%”. The “control against apple ring rot” value with apple ring rot is “more than 80%”. In addition, the “control against wheat powdery mildew” value in the experiment with wheat powdery mildew (50 ppm) and in the experiment on wheat powdery mildew (500 ppm) was 100% throughout. For the same compound, the “control against apple alternaria leaf spot” value in [1] is reported as “more than 80%”. Besides, the “control against grape white rot” value in the experiment on grape white rot is reported as “more than 80%”. Besides, the “control against rape sclerotiniose” value in the experiment on rape sclerotiniose is recorded as “more than 80%”. For the same compound, the “control against corn southern leaf blight” value in experiment [2] is “more than 80%”. The “control against tomato late blight” value in the experiment on tomato late blight was “more than 80%”. The “control against cucumber downy mildew” value with cucumber downy mildew (50 ppm) and in the experiment on cucumber downy mildew (500 ppm) was 100% in each case.

As for `CO/C=C(/C(=O)OC)c1ccccc1COc1cc(-c2ccc(OC)c(OC)c2)nn1C` [Compound 12], the “control against wheat powdery mildew” value in the experiment on wheat powdery mildew (500 ppm) worked out at 100%. In addition, in the experiment on cucumber downy mildew (500 ppm), the “control against cucumber downy mildew” value was 100%.

For `CO/C=C(/C(=O)OC)c1ccccc1COc1cc(-c2ccc([N+](=O)[O-])cc2)nn1C` [Compound 4], the “control against wheat powdery mildew” value with wheat powdery mildew (50 ppm) and in the experiment with wheat powdery mildew (500 ppm) was 100% throughout. For the same compound, the “control against cucumber downy mildew” value in the experiment with cucumber downy mildew (50 ppm) and with cucumber downy mildew (500 ppm) was 100% each time.

As to `CO/C=C(/C(=O)OC)c1ccccc1COc1cc(-c2ccccc2)nn1C` [Compound 1], the “control against wheat powdery mildew” value with wheat powdery mildew (50 ppm) and in the experiment with wheat powdery mildew (500 ppm) was 100% each time. Further, the “control against cucumber downy mildew” value in the experiment on cucumber downy mildew (50 ppm) and in the experiment on cucumber downy mildew (500 ppm) was 100% in each case.

For `CO/C=C(/C(=O)OC)c1ccccc1COc1c(Cl)c(-c2ccc(-c3ccc(Cl)cc3)cc2)nn1C` [Compound 179], the “control against wheat powdery mildew” value in the experiment on wheat powdery mildew (500 ppm) turned out to be 100%.

Regarding `CNC(=O)/C(=N/OC)c1ccccc1COc1cc(-c2ccc(Cl)cc2)nn1C` [Compound 356], the “control against wheat powdery mildew” value in the experiment on wheat powdery mildew (500 ppm) came to 100%.

Turning to `CO/C=C(/C(=O)OC)c1ccccc1COc1cc(-c2ccc(OCC(F)(F)F)cc2)nn1C` [Compound 74], in the experiment on wheat powdery mildew (500 ppm), the “control against wheat powdery mildew” value came out at 100%. For the same compound, the “control against cucumber downy mildew” value in the experiment on cucumber downy mildew (500 ppm) was determined as 100%.

For `CNC(=O)/C(=N/OC)c1ccccc1COc1cc(-c2ccc(Cl)cc2)nn1C(C)C` [Compound 435], the “control against wheat powdery mildew” value in the experiment with wheat powdery mildew (500 ppm) amounted to 100%.

As to `CO/C=C(/C(=O)OC)c1ccccc1COc1c(C)c(-c2ccc(Cl)cc2)nn1C` [Compound 30], the “control against wheat powdery mildew” value in the experiment with wheat powdery mildew (50 ppm) and in the experiment with wheat powdery mildew (500 ppm) was 100% each time. For the same compound, in the experiment with culex mosquito, the “control of culex mosquitoes” value came out at 100%. This compound also registered a control of armyworm in the experiment with armyworm of 100%. The same compound registered a control of aphids in the experiment with green peach aphid of 100%. The “control against cucumber downy mildew” value with cucumber downy mildew (50 ppm) and in the experiment with cucumber downy mildew (500 ppm) was 100% each time. The “control of diamond backmoth” value in the experiment on diamondback moth is on record as 100%.

Turning to `CO/C=C(/C(=O)OC)c1ccccc1COc1cc(-c2ccccc2)no1` [Compound 83], in the experiment with wheat powdery mildew (500 ppm), the “control against wheat powdery mildew” value came out at 100%. In the experiment with cucumber downy mildew (500 ppm), the “control against cucumber downy mildew” value turned out to be 100%.

Regarding `CO/C=C(/C(=O)OC)c1ccccc1COc1cc(-c2ccc(SC)cc2)nn1C` [Compound 165], the “control against wheat powdery mildew” value with wheat powdery mildew (500 ppm) is 100%.

For `CO/C=C(/C(=O)OC)c1ccccc1COc1cc(-c2ccc([N+](=O)[O-])cc2)no1` [Compound 86], the “control against wheat powdery mildew” value in the experiment on wheat powdery mildew (50 ppm) and in the experiment on wheat powdery mildew (500 ppm) was 100% throughout. Also, the “control against cucumber downy mildew” value in the experiment with cucumber downy mildew (50 ppm) and in the experiment with cucumber downy mildew (500 ppm) was 100% in each case.

As to `CO/C=C(/C(=O)OC)c1ccccc1COc1cc(-c2ccc(C(F)(F)F)cc2)nn1C` [Compound 5], the “control against wheat powdery mildew” value in the experiment with wheat powdery mildew (50 ppm) and in the experiment on wheat powdery mildew (500 ppm) was 100% throughout. Moreover, the “control against cucumber downy mildew” value with cucumber downy mildew (50 ppm) and in the experiment on cucumber downy mildew (500 ppm) was 100% in each case.

In the case of `CO/C=C(/C(=O)OC)c1ccccc1COc1cc(-c2cc(F)c(Cl)cc2Cl)nn1C` [Compound 11], the “control against wheat powdery mildew” value with wheat powdery mildew (500 ppm) amounted to 100%. Besides, the “control against cucumber downy mildew” value in the experiment on cucumber downy mildew (500 ppm) came out at 100%.

For the compound `CO/N=C(/C(=O)OC)c1ccccc1COc1cc(-c2ccc(Cl)nc2)nn1C` [Compound 287], the “control against wheat powdery mildew” value in the experiment with wheat powdery mildew (50 ppm) and with wheat powdery mildew (500 ppm) was 100% each time. Further, the “control against cucumber downy mildew” value with cucumber downy mildew (50 ppm) and with cucumber downy mildew (500 ppm) was 100% throughout.

With `CO/C=C(/C(=O)OC)c1ccccc1COc1cc(-c2ccc(Cl)cc2)no1` [Compound 84], the “control against wheat powdery mildew” value with wheat powdery mildew (50 ppm) and in the experiment with wheat powdery mildew (500 ppm) was 100% each time. Also, the “control against cucumber downy mildew” value in the experiment on cucumber downy mildew (50 ppm) and in the experiment on cucumber downy mildew (500 ppm) was 100% each time.

Consider `CO/N=C(/C(=O)OC)c1ccccc1COc1cc(-c2ccccc2)nn1C` [Compound 247], for which, in the experiment on cucumber grey mold, the “control against cucumber grey mold” value turned out to be 100%. In addition, the “control against wheat powdery mildew” value in the experiment on wheat powdery mildew (500 ppm) is recorded as 100%.

For the compound `CO/N=C(/C(=O)OC)c1ccccc1COc1cc(-c2ccc(Cl)cc2)nn1C` [Compound 248], the “control against wheat powdery mildew” value in the experiment on wheat powdery mildew (500 ppm) is recorded as 100%. Also, the “control against cucumber downy mildew” value in the experiment on cucumber downy mildew (500 ppm) stood at 100%.

For the compound `CO/C=C(/C(=O)OC)c1ccccc1COc1cc(-c2ccc(Oc3ccccc3)cc2)nn1C` [Compound 174], in the experiment on wheat powdery mildew (500 ppm), the “control against wheat powdery mildew” value amounted to 100%.

For the compound `CO/C=C(/C(=O)OC)c1ccccc1COc1cc(-c2ccc(Cl)nc2)nn1C` [Compound 69], the “control against wheat powdery mildew” value in the experiment on wheat powdery mildew (50 ppm) and in the experiment with wheat powdery mildew (500 ppm) was 100% throughout. In addition, the “control against cucumber downy mildew” value with cucumber downy mildew (50 ppm) and in the experiment with cucumber downy mildew (500 ppm) was 100% throughout.

For `CO/C=C(/C(=O)OC)c1ccccc1COc1cc(-c2ccc(Cl)cc2)nn1C(C)C` [Compound 190], the “control against wheat powdery mildew” value in the experiment on wheat powdery mildew (500 ppm) came out at 100%. In addition, the “control against cucumber downy mildew” value in the experiment on cucumber downy mildew (500 ppm) is 100%.
